In patent US9987276B2 (Celgene CAR LLC, priority 2008, dated 2018):
Entries after “also recorded” stand apart in the source; their conditions may differ.

How the values were obtained:
TEC kinase = TEC kinase (Homo sapiens (Human), UniProt P42680); experiment: Mass spectrometry for TEC kinase (tryptic digest); assay type: binding; settings: 3 hrs at 10× excess
Procedure: TEC kinase (45 pmols; Invitrogen) was incubated with (I-2) (450 pmols) for 3 hrs at 10× excess prior to tryptic digestion. Iodoacetamide was used as the alkylating agent after compound incubation. […] For tryptic digests a 5 ul aliquot (7.5 pmols) was diluted with 15 ul of 0.1% TFA prior to micro C18 Zip Tipping directly onto the MALDI target using alpha cyano-4-hydroxy cinnamic acid as the matrix (5 mg/ml in 0.1% TFA:Acetonitrile 50:50).
As depicted in FIG. 6, the expected peptide ([…]) to be modified was immediately evident after reaction with I-2 (MI mass of 359.17 Da) at MH+ of 1294.72. The peptide was also quite evident in the control sample as modified by Iodacetamide at MH+ of 992.56. […] There was no evidence of other modified peptides.
The fragmentation spectra of the 360.17 peak did show diagnostic fragments that were apparent in the PSD spectra of the modified peptide at 1294.72 (See FIG. 6).
To further verify the presence of the modified peptides, both the iodoacetamide labeled (992.56) and I-2 labeled (1294.72) were subjected to PSD (MS/MS) analysis. After a database search of the NCBI nr Homo sapien database using Mascot MS/MS Ion Search program the top match was the expected peptide in both cases.
For tryptic digests the instrument was set in Reflectron mode with a pulsed extraction setting of 2200. Calibration was done using the Laser Biolabs Pep Mix standard ([…], 1296.69, 1672.92, 2093.09, 2465.20). For CID/PSD analysis the peptide was selected using cursors to set ion gate timing and fragmentation occurred at a laser power about 20% higher and He was used as the collision gas for CID. Calibration for fragments was done using the P14R fragmentation calibration for the Curved field Reflectron.
TEC kinase (45 pmols; Invitrogen) was incubated with (I-4) (450 pmols) for 3 hrs at 10× excess prior to tryptic digestion. Iodoacetamide was used as the alkylating agent after compound incubation. […]

EGFR T790M = EGFR T790M (Homo sapiens (Human), UniProt P00533, T790M); experiment: EGFR mutant T790M inhibition assay; assay type: biochemical
Procedure: The Omnia Assay Protocol for potency assessment against EGFR is performed as described in Example 251 above except that the EGFR-WT- and EGFR T790M/L858R-modified optimized reagent conditions are: […]

PG-PS arthritis model = assay type: in vivo; settings: female Lewis rats, oral gavage daily through day 22
Procedure: On day 0, female Lewis rats received an intraperitoneal (IP) bolus of peptidoglycan-polysaccharide (PG-PS) in an amount of 15 μg/g rat body weight. Baseline control rats received an IP bolus of PBS. The vehicle and treatment groups were dosed via oral gavage just prior to PG-PS administration. Treatment with vehicle and compound continued each day through day 22. Maximal lateral ankle width measurements of both rear limbs were collected with a caliper throughout the study. On day 23, study was terminated and the final change in ankle swelling was calculated and compared to vehicle controls.

JAK3 kinase = JAK3 kinase (Homo sapiens (Human), UniProt P52333); experiment: Mass spectrometry for Janus-3 kinase (JAK3); assay type: binding; settings: 3 hrs at 10× excess, tryptic digest
Procedure: JAK3 kinase (33 pmols; Invitrogen) was incubated with (I-7) (327 pmols) for 3 hrs at 10× excess prior to tryptic digestion. Iodoacetamide was used as the alkylating agent after compound incubation. For tryptic digests a 5 ul aliquot (5.5 pmols) was diluted with 15 ul of 0.1% TFA prior to micro C18 Zip Tipping directly onto the MALDI target using alpha cyano-4-hydroxy cinnamic acid as the matrix (5 mg/ml in 0.1% TFA:Acetonitrile 50:50).
As depicted in FIG. 11, the expected peptide ([…]) to be modified was immediately evident as the largest peak at MH+ of 1725.88. This is the mass to be expected when compound I-7, with an adduct mass of 345.16, is added to the peptide mass of 1380.70. […] There was also evidence for a number of other modified peptides, however, their signals were low.
To further verify the presence of the modified peptides with compound I-7, the peptides at MH+ of 1725.88 and 1118.55 were subjected to PSD (MS/MS) analysis. A correlational analysis with the homosapien database identified the correct peptides as being modified by I-7.
For tryptic digests the instrument was set in Reflectron mode with a pulsed extraction setting of 2200. Calibration was done using the Laser Biolabs Pep Mix standard ([…], 1296.69, 1672.92, 2093.09, 2465.20). […]

[1] = system: TI-2 independent B cell activation; experiment: In vivo thymus-independent (TI-2) B cell activation; settings: C57/B6 mice, 100 mg/kg daily day 0 through 5, TNP-Ficoll, serum day 6

Sequence of TEC kinase (P42680 whole entry): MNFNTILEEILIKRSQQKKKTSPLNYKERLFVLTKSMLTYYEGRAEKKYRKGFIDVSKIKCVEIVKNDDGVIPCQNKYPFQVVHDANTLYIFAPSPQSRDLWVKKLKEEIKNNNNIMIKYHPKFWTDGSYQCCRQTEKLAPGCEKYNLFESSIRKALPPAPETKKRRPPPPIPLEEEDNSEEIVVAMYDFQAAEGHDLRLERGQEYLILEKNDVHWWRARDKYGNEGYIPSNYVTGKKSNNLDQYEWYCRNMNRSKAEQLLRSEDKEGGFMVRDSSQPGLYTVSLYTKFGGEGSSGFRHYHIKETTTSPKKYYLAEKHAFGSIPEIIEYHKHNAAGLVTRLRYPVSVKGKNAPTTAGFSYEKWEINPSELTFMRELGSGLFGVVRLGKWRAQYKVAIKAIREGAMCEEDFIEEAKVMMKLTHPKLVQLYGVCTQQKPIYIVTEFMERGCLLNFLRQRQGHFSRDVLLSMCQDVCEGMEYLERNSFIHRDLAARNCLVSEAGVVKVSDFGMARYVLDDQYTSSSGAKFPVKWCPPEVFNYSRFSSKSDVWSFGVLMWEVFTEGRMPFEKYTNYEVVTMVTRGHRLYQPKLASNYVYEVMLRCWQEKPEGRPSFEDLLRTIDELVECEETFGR
Sequence of JAK3 kinase (P52333 whole entry): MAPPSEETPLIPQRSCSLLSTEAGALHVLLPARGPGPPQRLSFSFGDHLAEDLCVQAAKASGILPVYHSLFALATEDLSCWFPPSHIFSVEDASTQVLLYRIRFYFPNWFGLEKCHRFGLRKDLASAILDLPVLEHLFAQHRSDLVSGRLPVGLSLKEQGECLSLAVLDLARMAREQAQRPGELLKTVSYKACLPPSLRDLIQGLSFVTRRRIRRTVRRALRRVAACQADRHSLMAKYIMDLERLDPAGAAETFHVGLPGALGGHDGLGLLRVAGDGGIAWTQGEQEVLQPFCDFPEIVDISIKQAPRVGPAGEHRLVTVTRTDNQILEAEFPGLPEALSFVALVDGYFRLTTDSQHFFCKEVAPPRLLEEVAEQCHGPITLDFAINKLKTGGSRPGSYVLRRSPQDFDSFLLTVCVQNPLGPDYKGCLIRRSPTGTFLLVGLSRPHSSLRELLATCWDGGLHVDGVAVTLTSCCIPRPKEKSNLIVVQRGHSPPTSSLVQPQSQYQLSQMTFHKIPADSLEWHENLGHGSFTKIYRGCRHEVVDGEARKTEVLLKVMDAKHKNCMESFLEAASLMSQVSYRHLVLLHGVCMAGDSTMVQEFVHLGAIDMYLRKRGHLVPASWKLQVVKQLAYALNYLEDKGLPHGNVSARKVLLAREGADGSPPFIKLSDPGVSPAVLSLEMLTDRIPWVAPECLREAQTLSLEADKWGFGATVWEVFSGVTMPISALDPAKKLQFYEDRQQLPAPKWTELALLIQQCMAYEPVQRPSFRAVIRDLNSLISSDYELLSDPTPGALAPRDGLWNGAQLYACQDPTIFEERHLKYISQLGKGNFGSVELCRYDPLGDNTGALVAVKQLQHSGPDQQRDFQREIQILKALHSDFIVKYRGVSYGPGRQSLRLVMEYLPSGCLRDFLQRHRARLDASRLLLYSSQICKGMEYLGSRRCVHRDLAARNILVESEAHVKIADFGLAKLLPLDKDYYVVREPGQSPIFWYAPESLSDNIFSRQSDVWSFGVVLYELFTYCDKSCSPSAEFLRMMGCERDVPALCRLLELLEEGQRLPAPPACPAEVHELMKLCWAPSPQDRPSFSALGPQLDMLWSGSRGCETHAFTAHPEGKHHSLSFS
Sequence of EGFR T790M (P00533 25-1210 T790M): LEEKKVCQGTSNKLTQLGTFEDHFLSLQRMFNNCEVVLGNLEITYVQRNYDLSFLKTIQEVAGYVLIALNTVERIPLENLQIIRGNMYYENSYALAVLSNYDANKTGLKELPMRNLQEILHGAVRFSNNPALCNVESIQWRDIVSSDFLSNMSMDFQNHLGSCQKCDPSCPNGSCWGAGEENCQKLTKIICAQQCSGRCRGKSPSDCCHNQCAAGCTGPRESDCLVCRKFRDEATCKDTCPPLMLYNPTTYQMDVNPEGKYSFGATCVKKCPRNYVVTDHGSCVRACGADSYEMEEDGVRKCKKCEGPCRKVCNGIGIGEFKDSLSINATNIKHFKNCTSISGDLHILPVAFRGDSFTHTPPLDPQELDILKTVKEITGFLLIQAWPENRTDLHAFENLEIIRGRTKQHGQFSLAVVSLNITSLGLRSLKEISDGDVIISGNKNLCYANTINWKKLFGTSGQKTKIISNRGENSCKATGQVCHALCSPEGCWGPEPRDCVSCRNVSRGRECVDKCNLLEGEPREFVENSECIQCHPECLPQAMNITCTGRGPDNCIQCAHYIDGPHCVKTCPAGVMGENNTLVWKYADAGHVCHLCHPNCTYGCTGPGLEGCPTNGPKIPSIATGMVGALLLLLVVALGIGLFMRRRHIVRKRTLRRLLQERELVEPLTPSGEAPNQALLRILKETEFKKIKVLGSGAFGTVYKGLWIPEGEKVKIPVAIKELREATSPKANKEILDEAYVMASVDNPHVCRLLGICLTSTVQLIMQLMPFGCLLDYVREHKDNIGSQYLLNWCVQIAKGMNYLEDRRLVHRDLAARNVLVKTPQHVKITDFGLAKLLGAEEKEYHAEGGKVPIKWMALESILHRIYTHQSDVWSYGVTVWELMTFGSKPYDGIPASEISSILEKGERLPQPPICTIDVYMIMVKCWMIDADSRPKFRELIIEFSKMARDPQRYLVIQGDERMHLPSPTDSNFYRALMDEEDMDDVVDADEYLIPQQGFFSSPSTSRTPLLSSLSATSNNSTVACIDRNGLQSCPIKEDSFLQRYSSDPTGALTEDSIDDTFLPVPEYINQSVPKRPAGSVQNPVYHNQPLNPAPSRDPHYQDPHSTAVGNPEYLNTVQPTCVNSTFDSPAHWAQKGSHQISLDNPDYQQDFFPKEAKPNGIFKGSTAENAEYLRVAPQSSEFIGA

Compound | covalent modification of TEC kinase (Cys449, peptide GCLLNFLR) by mass spectrometry (TEC kinase) | IC50 (EGFR T790M) [nM] | % inhibition ankle swelling (PG-PS arthritis model) [%] | covalent modification of JAK3 (Cys909, peptide LVMEYLPSGCLR) by mass spectrometry (JAK3 kinase) | % Inhibition IgG3 (1:100) [1] [%] | % Inhibition IgM (1:1600) [1] [%]
Cc1cccc(Nc2nc(Nc3cccc(NC(=O)/C=C/CN(C)C)c3)ncc2F)c1 [Compound I-4, (E)-4-(dimethylamino)-N-(3-(5-fluoro-4-(m-tolylamino)pyrimidin-2-ylamino)phenyl)but-2-enamide] | reaction was complete; also recorded: covalent modification | < 10 | – | – | – | –
C=CC(=O)Nc1cccc(Nc2nc(Nc3ccccc3)ncc2C)c1 [Compound I-7, N-(3-(5-methyl-2-(phenylamino)pyrimidin-4-ylamino)phenyl) acrylamide] | reaction was complete; also recorded: covalent modification | – | 77.5 | not entirely complete; also recorded: covalent modification | 57 | 48
